pIC50: −log10 of the molar value.
System: human cervical tumor cell line HeLa (ATCC CCL-2)
Assay: SAC-Formation - Nocodazole-Induced Assay
Format: cell-based
Settings: Homo sapiens, HeLa, 24 h, HeLa cells, nocodazole 0.1 μg/ml together with test compound, decrease of mitotic cells (phospho-histone H3 Ser10)
Procedure, shortened: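 HeLa cells, plated overnight, were treated 24 h at 37 °C with nocodazole (0.1 μg/ml final) plus test compound (0.005–20 μM, 0.5% DMSO) added at the same time. After fixation, anti-phospho-histone H3 Ser10 and Hoechst staining gave the mitotic cell fraction by imaging. Values came from four-parameter Hill fits.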

pIC50	SMILES
5.43	Cc1nsc(Nc2ccc(C#N)cn2)c1C(=O)Nc1cccc(C(=O)NC(C)C)c1 [Example 255, 5-[(5-cyanopyridin-2-yl)amino]-N-[3-(isopropylcarbamoyl)phenyl]-3-methyl-1,2-thiazole-4-carboxamide]
7.46	Cc1nsc(Nc2cnc(C(F)(F)F)cn2)c1C(=O)Nc1ccc(F)c(OC2CCN(CC(F)(F)F)CC2)c1 [Example 264, N-(4-fluoro-3-{[1-(2,2,2-trifluoroethyl)piperidin-4-yl]oxy}phenyl)-3-methyl-5-{[5-(trifluoromethyl)pyrazin-2-yl]amino}-1,2-thiazole-4-carboxamide]
5.51	Cc1nsc(Nc2cnc(C(F)(F)F)cn2)c1C(=O)Nc1ccc(OCCCNCC(F)F)nc1 [Example 293, N-(6-{3-[(2,2-difluoroethyl)amino]propoxy}pyridin-3-yl)-3-methyl-5-{[5-(trifluoromethyl)pyrazin-2-yl]amino}-1,2-thiazole-4-carboxamide]
5.48	Cc1nsc(Nc2cnc3ccccc3n2)c1C(=O)Nc1cccc(NS(=O)(=O)C2CCN(CCC(F)(F)F)CC2)c1 [Example 283, 3-methyl-5-(quinoxalin-2-ylamino)-N-[3-({[1-(3,3,3-trifluoropropyl)piperidin-4-yl]sulfonyl}amino)phenyl]-1,2-thiazole-4-carboxamide]
6.72	Cc1nsc(Nc2cnc(C(F)(F)F)cn2)c1C(=O)Nc1ccc(F)c(OC2CCN(CC(F)F)CC2)c1 [Example 265, N-(3-{[1-(2,2-difluoroethyl)piperidin-4-yl]oxy}-4-fluorophenyl)-3-methyl-5-{[5-(trifluoromethyl)pyrazin-2-yl]amino}-1,2-thiazole-4-carboxamide]
6.92	Cc1nsc(Nc2cnc(C(F)(F)F)cn2)c1C(=O)Nc1ccc(OCCCO)nc1 [Example 279, N-[6-(3-hydroxypropoxy)pyridin-3-yl]-3-methyl-5-{[5-(trifluoromethyl)pyrazin-2-yl]amino}-1,2-thiazole-4-carboxamide]
6.19	Cc1nsc(Nc2cnc(C(F)(F)F)cn2)c1C(=O)Nc1ccc(OCCO)nc1 [Example 277, N-[6-(2-hydroxyethoxy)pyridin-3-yl]-3-methyl-5-{[5-(trifluoromethyl)pyrazin-2-yl]amino}-1,2-thiazole-4-carboxamide]
6.82	Cc1nsc(Nc2cnc(C(F)(F)F)cn2)c1C(=O)Nc1ccc(F)c(OC2CCN(CCF)CC2)c1 [Example 266, N-(4-fluoro-3-{[1-(2-fluoroethyl)piperidin-4-yl]oxy}phenyl)-3-methyl-5-{[5-(trifluoromethyl)pyrazin-2-yl]amino}-1,2-thiazole-4-carboxamide]
6.74	Cc1nsc(Nc2cnc(C(F)(F)F)cn2)c1C(=O)Nc1ccc(OC2CCN(CC(F)F)C2)nc1 (centres unmarked) [Example 296, N-(6-{[1-(2,2-difluoroethyl)pyrrolidin-3-yl]oxy}pyridin-3-yl)-3-methyl-5-{[5-(trifluoromethyl)pyrazin-2-yl]amino}-1,2-thiazole-4-carboxamide]
5.70	Cc1nsc(Nc2cnc3ccccc3n2)c1C(=O)Nc1cccc(NS(=O)(=O)C2CCN(C(=O)OC(C)(C)C)C2)c1 (centres unmarked) [Example 290, tert-butyl 3-{[3-({[3-methyl-5-(quinoxalin-2-ylamino)-1,2-thiazol-4-yl]carbonyl}amino)phenyl]sulfamoyl} pyrrolidine-1-carboxylate]
5.92	Cc1nsc(Nc2cnc3ccccc3n2)c1C(=O)Nc1cccc(NS(=O)(=O)C2CCN(CC(F)(F)F)CC2)c1 [Example 281, 3-methyl-5-(quinoxalin-2-ylamino)-N-[3-({[1-(2,2,2-trifluoroethyl)piperidin-4-yl]sulfonyl}amino)phenyl]-1,2-thiazole-4-carboxamide]
5.72	Cc1nsc(Nc2cnc3ccccc3n2)c1C(=O)Nc1cccc(NS(=O)(=O)C2CCN(CC(F)(F)F)C2)c1 (centres unmarked) [Example 289, 3-methyl-5-(quinoxalin-2-ylamino)-N-[3-({[1-(2,2,2-trifluoroethyl)pyrrolidin-3-yl]sulfonyl}amino)phenyl]-1,2-thiazole-4-carboxamide]
7.29	Cc1nsc(Nc2cnc(C(F)(F)F)cn2)c1C(=O)Nc1ccc(F)c(OCCCN(C)CCC(F)(F)F)c1 [Example 303, N-(4-fluoro-3-{3-[methyl(3,3,3-trifluoropropyl)amino]propoxy}phenyl)-3-methyl-5-{[5-(trifluoromethyl)pyrazin-2-yl]amino}-1,2-thiazole-4-carboxamide]
6.89	Cc1nsc(Nc2cnc(C(F)(F)F)cn2)c1C(=O)Nc1ccc(F)c(OCC2CCN(CCC(F)(F)F)CC2)c1 [Example 311, N-(4-fluoro-3-{[1-(3,3,3-trifluoropropyl)piperidin-4-yl]methoxy}phenyl)-3-methyl-5-{[5-(trifluoromethyl)pyrazin-2-yl]amino}-1,2-thiazole-4-carboxamide]
6.85	Cc1nsc(Nc2cncc(C(F)(F)F)n2)c1C(=O)Nc1ccc(C(=O)N2CCN(CCF)CC2)cc1 [Example 274, N-(4-{[4-(2-fluoroethyl)piperazin-1-yl]carbonyl}phenyl)-3-methyl-5-{[6-(trifluoromethyl)pyrazin-2-yl]amino}-1,2-thiazole-4-carboxamide]
5.11	Cc1nsc(Nc2cnc3ccccc3n2)c1C(=O)Nc1cccc(NS(=O)(=O)C2CN(CCC(F)(F)F)C2)c1 [Example 288, 3-methyl-5-(quinoxalin-2-ylamino)-N-[3-({[1-(3,3,3-trifluoropropyl)azetidin-3-yl]sulfonyl}amino)phenyl]-1,2-thiazole-4-carboxamide]
6.85	Cc1nsc(Nc2cnc(C(F)(F)F)cn2)c1C(=O)Nc1ccc(OC2CCN(C(CF)CF)C2)nc1 (centres unmarked) [Example 313, N-(6-{[1-(1,3-difluoropropan-2-yl)pyrrolidin-3-yl]oxy}pyridin-3-yl)-3-methyl-5-{[5-(trifluoromethyl)pyrazin-2-yl]amino}-1,2-thiazole-4-carboxamide]
6.35	Cc1nsc(Nc2cnc(C(F)(F)F)cn2)c1C(=O)Nc1ccc(OCCCNCCC(F)(F)F)nc1 [Example 294, 3-methyl-5-{[5-(trifluoromethyl)pyrazin-2-yl]amino}-N-(6-{3-[(3,3,3-trifluoropropyl)amino]propoxy}pyridin-3-yl)-1,2-thiazole-4-carboxamide]
7.33	Cc1nsc(Nc2cncc(C(F)(F)F)n2)c1C(=O)Nc1ccc(F)c(OC2CCN(CC(F)(F)F)CC2)c1 [Example 267, N-(4-fluoro-3-{[1-(2,2,2-trifluoroethyl)piperidin-4-yl]oxy}phenyl)-3-methyl-5-{[6-(trifluoromethyl)pyrazin-2-yl]amino}-1,2-thiazole-4-carboxamide]
7.09	Cc1nsc(Nc2cnc(C(F)(F)F)cn2)c1C(=O)Nc1ccc(F)c(OCC2CCN(C(CF)CF)CC2)c1 [Example 312, N-(3-{[1-(1,3-difluoropropan-2-yl)piperidin-4-yl]methoxy}-4-fluorophenyl)-3-methyl-5-{[5-(trifluoromethyl)pyrazin-2-yl]amino}-1,2-thiazole-4-carboxamide]
6.89	Cc1nsc(Nc2cncc(C(F)(F)F)n2)c1C(=O)Nc1ccc(OC2CCN(CCC(F)(F)F)CC2)nc1 [Example 304, 3-methyl-5-{[6-(trifluoromethyl)pyrazin-2-yl]amino}-N-(6-{[1-(3,3,3-trifluoropropyl)piperidin-4-yl]oxy}pyridin-3-yl)-1,2-thiazole-4-carboxamide]
6.96	Cc1nsc(Nc2cnc(C(F)(F)F)cn2)c1C(=O)Nc1ccc(F)c(OCCCN(C)CC(F)F)c1 [Example 301, N-(3-{3-[(2,2-difluoroethyl)(methyl)amino]propoxy}-4-fluorophenyl)-3-methyl-5-{[5-(trifluoromethyl)pyrazin-2-yl]amino}-1,2-thiazole-4-carboxamide]
7.23	Cc1nsc(Nc2cnc(C(F)(F)F)cn2)c1C(=O)Nc1ccc(F)c(OCC2CCN(CC(F)(F)F)CC2)c1 [Example 310, N-(4-fluoro-3-{[1-(2,2,2-trifluoroethyl)piperidin-4-yl]methoxy}phenyl)-3-methyl-5-{[5-(trifluoromethyl)pyrazin-2-yl]amino}-1,2-thiazole-4-carboxamide]
5.82	CCNC(=O)c1cccc(NC(=O)c2c(C)nsc2Nc2cnc3ccccc3n2)c1 [Example 251, N-[3-(ethylcarbamoyl)phenyl]-3-methyl-5-(quinoxalin-2-ylamino)-1,2-thiazole-4-carboxamide]
6.64	Cc1nsc(Nc2cncc(C(F)(F)F)n2)c1C(=O)Nc1ccc(C(=O)N2CCN(CC(F)(F)F)CC2)cc1 [Example 272, 3-methyl-N-(4-{[4-(2,2,2-trifluoroethyl)piperazin-1-yl]carbonyl}phenyl)-5-{[6-(trifluoromethyl)pyrazin-2-yl]amino}-1,2-thiazole-4-carboxamide]
6.26	COC(=O)CCc1cccc(NC(=O)c2c(C)nsc2Nc2cnc3ccccc3n2)c1 [Example 257, methyl 3-[3-({[3-methyl-5-(quinoxalin-2-ylamino)-1,2-thiazol-4-yl]carbonyl}amino)phenyl]propanoate]
7.80	Cc1nsc(Nc2cc(C#N)ccn2)c1C(=O)Nc1ccc(OC2CCN(CC(F)(F)F)CC2)nc1 [Example 25, 5-[(4-Cyanopyridin-2-yl)amino]-3-methyl-N-(6-{[1-(2,2,2-trifluoroethyl)piperidin-4-yl]oxy}pyridin-3-yl)-1,2-thiazole-4-carboxamide]
7.51	Cc1nsc(Nc2cnc(C(F)(F)F)cn2)c1C(=O)Nc1ccc(F)c(OCC2CCN(CC(F)F)CC2)c1 [Example 308, N-(3-{[1-(2,2-difluoroethyl)piperidin-4-yl]methoxy}-4-fluorophenyl)-3-methyl-5-{[5-(trifluoromethyl)pyrazin-2-yl]amino}-1,2-thiazole-4-carboxamide]
7.06	Cc1nsc(Nc2cnc(C(F)(F)F)cn2)c1C(=O)Nc1ccc(F)c(OCC2CCN(CCF)C2)c1 (centres unmarked) [Example 317, N-(4-fluoro-3-{[1-(2-fluoroethyl)pyrrolidin-3-yl]methoxy}phenyl)-3-methyl-5-{[5-(trifluoromethyl)pyrazin-2-yl]amino}-1,2-thiazole-4-carboxamide]
